{"source": "ChEMBL document CHEMBL5303711", "about": "“ECBD screening data for assay EOS300108” (2023)", "assay": "Cytotoxicity activity against human HepG2 cells assessed by CellTiter-Glo luminescent cell viability assay.", "format": "toxicity, cell-based", "design": "assay stage confirmatory assay, source tissue liver", "details": "HepG2 cells, read-out: IC50 relative", "note": "Counter-ions that a name gives are not always drawn. Active and inactive are the calls of the source. No rule for the calls is given here.", "data": [{"compound": "COc1ccc(-c2cn3nc(N4CCC(C(=O)NCCCN5CCN(C)CC5)CC4)sc3n2)cc1", "values": [{"measurement": "CC50", "result": "4.1 µM (active)"}]}, {"compound": "COc1ccc2cc(CN3CCC(n4ccnc4)CC3)ccc2c1", "values": [{"measurement": "CC50", "result": "11.5 µM (active)"}]}, {"compound": "CCOc1ccccc1CN1CCN(Cc2ccc(C)cc2)CC1CCO", "note": "(stereo not given)", "values": [{"measurement": "CC50", "result": "12.9 µM (inactive)"}]}, {"compound": "CCOC(=O)c1cnc2ccc(-c3cncc(NS(=O)(=O)c4ccccc4)c3)cn12", "values": [{"measurement": "CC50", "result": "3.8 µM (active)"}]}, {"compound": "COc1c(Br)cc(Cl)cc1S(=O)(=O)N1CCC[C@H](N)C1", "values": [{"measurement": "CC50", "result": "16.1 µM (inactive)"}]}, {"compound": "CC1CC(C)CN(CCCNC(=O)Cn2nc(-c3ccc(Cl)cc3)ccc2=O)C1", "note": "(stereo not given)", "values": [{"measurement": "CC50", "result": "14.5 µM (inactive)"}]}, {"compound": "COc1ccc(-c2csc3[nH]c(=O)cc(O)c23)cc1", "values": [{"measurement": "CC50", "result": "3.7 µM (active)"}]}, {"compound": "COc1ccc(NS(=O)(=O)c2ccc(-c3cnc(C)o3)cc2)cc1OC", "values": [{"measurement": "CC50", "result": "3.6 µM (active)"}]}, {"compound": "O=C(Nc1ccc2[nH]nc(-c3ccncc3)c2c1)[C@@H]1CCN(CC(=O)N2CCN(c3ccc(-c4ncccn4)cc3)CC2)C1", "values": [{"measurement": "CC50", "result": "0.1 µM (active)"}]}, {"compound": "FC(F)(F)c1cccc(Nc2nc(-c3ccccc3)nc3ncccc23)c1", "values": [{"measurement": "CC50", "result": "41.6 µM (inactive)"}]}, {"compound": "COc1cccc(NC(=O)Nc2nc3ccc(S(C)(=O)=O)cc3s2)c1", "values": [{"measurement": "CC50", "result": "18.1 µM (inactive)"}]}, {"compound": "O=C(Nc1ccc(O[C@H]2CCOC2)cc1)c1cn2ccnc2s1", "values": [{"measurement": "CC50", "result": "1.8 µM (active)"}]}, {"compound": "Cc1cc(OCCOCCN2CCN(C)CC2)c(Cl)c(C)c1Cl", "values": [{"measurement": "CC50", "result": "5.3 µM (active)"}]}, {"compound": "CC(C)C[C@H](NC(=O)[C@@H](NC(=O)c1cccc(-c2ccccc2)n1)[C@@H](C)O)B(O)O", "note": "[DELANZOMIB]", "values": [{"measurement": "CC50", "result": "< 0.1 µM (active)"}]}, {"compound": "O=C(NC(NC(=S)Nc1ccc(F)c([N+](=O)[O-])c1)C(Cl)(Cl)Cl)C(c1ccccc1)c1ccccc1", "note": "(stereo not given)", "values": [{"measurement": "CC50", "result": "6.3 µM (active)"}]}, {"compound": "CC1(COc2ccc3c(c2)ncn3-c2ccc3cccc(N4CCC(N)CC4)c3n2)COC1", "note": "[CRENOLANIB]", "values": [{"measurement": "CC50", "result": "4.4 µM (active)"}]}, {"compound": "CCS(=O)(=O)N1CCc2ccc(NC(=O)Nc3cccc(F)c3)cc21", "values": [{"measurement": "CC50", "result": "5.2 µM (active)"}]}, {"compound": "O=C(NCc1ccccc1)c1c(O)c2cccnc2n(Cc2ccccc2)c1=O", "values": [{"measurement": "CC50", "result": "6.9 µM (active)"}]}, {"compound": "CCN1CCCCC1CNCc1ccc2cc(O)ccc2c1", "note": "(stereo not given)", "values": [{"measurement": "CC50", "result": "11.5 µM (active)"}]}, {"compound": "CCOc1cc(CNCC(C)O)ccc1OCc1ccc(C)cc1", "note": "(stereo not given)", "values": [{"measurement": "CC50", "result": "9.4 µM (active)"}]}, {"compound": "O=c1[nH]ncc(NCc2ccc(OC[C@H]3CCCO3)cc2)c1Cl", "values": [{"measurement": "CC50", "result": "4.2 µM (inactive)"}]}, {"compound": "Cc1ccc(F)c(C(=O)N2CCC(Oc3ccncc3C)CC2)c1", "values": [{"measurement": "CC50", "result": "11.2 µM (active)"}]}, {"compound": "CN(C)c1ccc(Cl)cc1NC(=O)c1cn(CCC2CCCCN2)nn1", "note": "(stereo not given)", "values": [{"measurement": "CC50", "result": "6.8 µM (active)"}]}, {"compound": "CCN1CCN(CCNC(=O)c2cn3ccnc(-c4ccc(C)cc4)c3n2)CC1", "values": [{"measurement": "CC50", "result": "29 µM (inactive)"}]}, {"compound": "CC(C)[C@H](NCC(=O)N1CCN(c2ccccn2)CC1)c1ccc(Cl)cc1", "values": [{"measurement": "CC50", "result": "8 µM (active)"}]}, {"compound": "CCNC(=O)c1[nH]nc(-c2cc(Cl)c(O)cc2O)c1-c1ccc(OC)cc1", "values": [{"measurement": "CC50", "result": "1 µM (active)"}]}, {"compound": "COc1ccc(C(N)=O)c(OCc2cccc3cccnc23)c1", "values": [{"measurement": "CC50", "result": "0.3 µM (active)"}]}, {"compound": "Cc1sc2c(c1C)C(c1ccc(Cl)cc1)=N[C@@H](CC(=O)Nc1ccc(O)cc1)c1nnc(C)n1-2", "note": "[BIRABRESIB]", "values": [{"measurement": "CC50", "result": "1.3 µM (active)"}]}, {"compound": "Cc1cc(C)cc(N2CCN(C(=O)c3cnn4ccccc34)CC2=O)c1", "values": [{"measurement": "CC50", "result": "0.7 µM (active)"}]}, {"compound": "COc1ccc(-c2c[nH]c3nccc(-c4ccsc4)c23)c(OC)c1", "values": [{"measurement": "CC50", "result": "7.9 µM (active)"}]}, {"compound": "COc1ccc(N2C(=O)/C(=C\\c3ccc(O)c(Br)c3)SC2=S)cc1", "values": [{"measurement": "CC50", "result": "10.3 µM (active)"}]}, {"compound": "COC1=C2C[C@@H](C)C[C@H](OC)[C@H](O)[C@@H](C)/C=C(/C)[C@H](OC(N)=O)[C@@H](OC)/C=C\\C=C(\\C)C(=O)NC(=CC1=O)C2=O", "values": [{"measurement": "CC50", "result": "< 0.1 µM (active)"}]}, {"compound": "COc1cc(N2CCC(N3CCN(C)CC3)CC2)ccc1Nc1ncc(Cl)c(Nc2ccccc2P(C)(C)=O)n1", "note": "[BRIGATINIB]", "values": [{"measurement": "CC50", "result": "5.7 µM (active)"}]}, {"compound": "Fc1ccc(C(c2ccc(F)cc2)N2CCN(C/C=C/c3ccccc3)CC2)cc1", "note": "[FLUNARIZINE HYDROCHLORIDE]", "values": [{"measurement": "CC50", "result": "14.6 µM (inactive)"}]}, {"compound": "COc1cc(N2CCN(C)CC2)ccc1Nc1nccc(-c2cn(C)c3cnccc23)n1", "values": [{"measurement": "CC50", "result": "4.4 µM (active)"}]}, {"compound": "CS(=O)(=O)N1CCN(Cc2cc3nc(-c4cccc5[nH]ncc45)nc(N4CCOCC4)c3s2)CC1", "note": "[PICTILISIB]", "values": [{"measurement": "CC50", "result": "0.9 µM (active)"}]}, {"compound": "Nc1ccncc1CCC1CCCCC1", "values": [{"measurement": "CC50", "result": "10.7 µM (active)"}]}, {"compound": "CC(C)c1cc(CNc2nc(Nc3cc(C4CC4)[nH]n3)cc(N3CCN(C)CC3)n2)on1", "note": "[XL-228]", "values": [{"measurement": "CC50", "result": "1.7 µM (active)"}]}, {"compound": "CC1CC[C@@]2(NC1)O[C@H]1C[C@H]3[C@@H]4CC=C5CC(O)CCC5(C)C4CCC3(C)[C@H]1[C@@H]2C", "note": "(stereo not given in full)", "values": [{"measurement": "CC50", "result": "25.1 µM (inactive)"}]}, {"compound": "CCCOc1ccccc1-n1c(C)cn2c3c(=O)n(C)c(=O)n(C)c3nc12", "values": [{"measurement": "CC50", "result": "6.7 µM (active)"}]}, {"compound": "Cc1nc(NC(=O)c2ccc(C)c(Br)c2)n(C)n1", "values": [{"measurement": "CC50", "result": "11.7 µM (active)"}]}, {"compound": "COc1ccc([C@@H]2CCCN2c2cnn(C(C)(C)C)c(=O)c2Cl)cc1", "values": [{"measurement": "CC50", "result": "11.1 µM (active)"}]}, {"compound": "CCN(CC)C(=S)SSC(=S)N(CC)CC", "values": [{"measurement": "CC50", "result": "0.3 µM (inactive)"}]}, {"compound": "Cc1cccc(NC(=O)C2CCN(S(=O)(=O)c3cn(C(C)C)cn3)CC2)c1", "values": [{"measurement": "CC50", "result": "8.8 µM (inactive)"}]}, {"compound": "CN(C)C(=O)CO[C@@H]1COCC[C@H]1NC(=O)c1cn(C)c2ccccc12", "values": [{"measurement": "CC50", "result": "6.3 µM (active)"}]}, {"compound": "Cc1nc2ccccc2nc1CSCCCS(=O)(=O)C(C)C", "values": [{"measurement": "CC50", "result": "0.9 µM (active)"}]}, {"compound": "CN(C)CCN(CCCN)Cc1ccco1", "values": [{"measurement": "CC50", "result": "12.3 µM (active)"}]}, {"compound": "Cn1c(CNC(=O)c2ccc3c(c2)n(C)c(=O)c2ccnn23)nc2ccccc21", "values": [{"measurement": "CC50", "result": "16.4 µM (inactive)"}]}, {"compound": "CC(=O)Nc1ccc(NC(=O)c2c(O)c3sccc3n(Cc3ccccc3)c2=O)cc1", "values": [{"measurement": "CC50", "result": "50 µM (inactive)"}]}, {"compound": "Cc1ccccc1OCc1n(CC(=O)OC2CC(C)CCC2C(C)C)c2ccccc2[n+]1C", "note": "(stereo not given)", "values": [{"measurement": "CC50", "result": "4.4 µM (active)"}]}, {"compound": "CN1CCN(c2ccc(OC(F)(F)F)c(Nc3ncc4c(n3)-c3c(c(C(N)=O)nn3CCO)CC4)c2)CC1", "note": "[ONVANSERTIB]", "values": [{"measurement": "CC50", "result": "11.9 µM (active)"}]}, {"compound": "CCNC(=O)c1noc(-c2cc(Cl)c(O)cc2O)c1-c1ccc(OC)cc1", "values": [{"measurement": "CC50", "result": "0.1 µM (active)"}]}, {"compound": "Cc1cc(NC(=O)c2cccc(NC(=O)/C=C/CN(C)C)c2)ccc1Nc1nccc(-c2cccnc2)n1", "values": [{"measurement": "CC50", "result": "3.8 µM (active)"}]}, {"compound": "FC(F)(F)c1ccc(CNc2ccc(Cc3c[nH]c4ncc(Cl)cc34)cn2)cn1", "note": "[PEXIDARTINIB]", "values": [{"measurement": "CC50", "result": "5.2 µM (active)"}]}, {"compound": "Clc1ccc(C2=CCNCC2)cc1Cl", "values": [{"measurement": "CC50", "result": "10.8 µM (active)"}]}, {"compound": "Cc1nc(-c2ccccn2)[nH]c(=O)c1CC(=O)N1CCC[C@H]1C1CCCCC1", "values": [{"measurement": "CC50", "result": "6.7 µM (active)"}]}, {"compound": "CCCc1nnsc1C(=O)Nc1nc2ccccc2[nH]1", "values": [{"measurement": "CC50", "result": "19 µM (inactive)"}]}, {"compound": "N#Cc1cnc2c(Cl)cc(NCc3cn(CCN4CCCCCC4)nn3)cc2c1Nc1ccc(F)c(Cl)c1", "values": [{"measurement": "CC50", "result": "11.6 µM (active)"}]}, {"compound": "CC(C)n1ncnc1NC(=O)c1cccc(C(F)(F)F)c1O", "values": [{"measurement": "CC50", "result": "5.6 µM (active)"}]}, {"compound": "COc1ccc(N(C(=O)Nc2c(C)cccc2C)c2cc(Nc3ccc(N4CCN(C)CC4)cc3)ncn2)c(OC)c1", "values": [{"measurement": "CC50", "result": "6.1 µM (active)"}]}, {"compound": "NC(=O)c1cc(-c2csc(Nc3ccccc3)n2)ccc1O", "values": [{"measurement": "CC50", "result": "14.2 µM (inactive)"}]}, {"compound": "C[C@@H]1CN(c2cc(-c3n[nH]c4ccc(OC5(C)CC5)cc34)ncn2)C[C@H](C)O1", "note": "[MLi-2]", "values": [{"measurement": "CC50", "result": "16.5 µM (active)"}]}, {"compound": "CCn1c(=O)n(CC)c2cc(N3CCCC3)c(NC(=O)c3cccc(OC)c3)cc21", "values": [{"measurement": "CC50", "result": "20.2 µM (inactive)"}]}, {"compound": "Cc1nc2ccccc2n1CCN1CCN(CCOc2ccccc2)CC1", "values": [{"measurement": "CC50", "result": "7.5 µM (active)"}]}, {"compound": "OCCCNc1cc(-c2ccnc(Nc3cccc(Cl)c3)n2)ccn1", "values": [{"measurement": "CC50", "result": "1.4 µM (active)"}]}]}
